Measurements as given in patent US20150133516A1, “Methods and Compositions for Treating ADHD” (priority 2013, published 2015).

Assays:
[1] = system: spontaneously hypertensive rats (SHR); test: delayed gratification response paradigm in SHR animal model of ADHD; format: in vivo, rat; settings: 5, 10, 25 or 50 mg/kg over twenty-one days
Source text: In this study, spontaneously hypertensive rats (SHR) are used as an animal model for ADHD. The SHR animal model is described in Russell et al., 2000, Behavioral Brain Research, 117: 69-74; Russell, 2001, Metab. Brain Dis., 16: 143-149; and Sagvolden et al., 1992, Behav. Neural Biol., 58: 103-112. The study consists of two groups of rats: normal and SHR. Each group is further divided into two subgroups: placebo and AR08. The AR08 subgroup is further divided into four subgroups and each subgroup is administered 5, 10, 25, or 50 mg/kg of AR08. The AR08 is administered to the rats over a period of twenty-one days. The rats are from the normal and SHR groups are trained in the delayed gratification response paradigm as described in Charrier et al., 1996, Pharmacology and Biochemistry and Behavior, 54: 149-157. In this paradigm, rats learn to choose between five food pellets delivered after 30 seconds and one food pellet delivered after 5 seconds. Normal rats learn to choose the five food pellets delivered after 30 seconds at a higher frequency.

α2 adrenergic receptors = test: alpha 2/alpha1 functional selectivity (in vitro functional potencies); format: biochemical
Method: (§1) The pharmacological activity and selectivity of these compounds can be determined using published test procedures. […] (See, e.g., The Alpha-2 Adrenergic Receptors, L. E. Limbird, ed., Humana Press, Clifton, N.J.) The following in vivo assays are typically conducted in rodents or other species. Central nervous system activity is determined by measuring locomotor activity as an index of sedation. (See, e.g., Spyraki, C. & H. Fibiger, “Clonidine-induced Sedation in Rats: Evidence for Mediation by Postsynaptic Alpha-2 Adrenoreceptors”, Journal of Neural Transmission, Vol. 54 (1982), pp. 153-163). Nasal decongestant activity is measured using rhinomanometry as an estimate of nasal airway resistance. […] Antiglaucoma activity is determined by measuring intraocular pressure. […] Antidiarrheal activity is determined by measuring the ability of the compounds to inhibit prostaglandin-induced diarrhea. […] Efficacy in treating irritable bowel syndrome is determined by measuring the ability of compounds to reduce the stress-induced increase in fecal output. […] Antiasthma activity is determined by measuring the effect of the compound on bronchoconstriction associated with pulmonary challenges such as inhaled antigens. […] Activity in cough is determined by measuring the number and latency of the cough response to respiratory challenges such as inhaled citric acid. […]

α2 receptors = test: receptor binding affinities / selectivity against other molecular targets
Method: as §1

clinical = settings: human, in vivo

Row | Compound | amount of time required by SHR rats to choose five food pellets delivered after 30 seconds at a higher frequency [1] | alpha 2/alpha1 functional selectivity (α2 adrenergic receptors) | binding to targets other than α2 receptors (α2 receptors) | selectivity for the α2 adrenergic receptors (α2 receptors; versus a wide range of other molecular targets) | half-life (clinical) [h]
1 | Cc1c(N=C2NCCN2)cc(C#N)c2[nH]cnc12 [AR08, N-(4,5-Dihydro-1H-imidazol-2-yl)-7-cyano-4-methyl-1H-benzimidazol-5-amine acetate] | reduced | – | – | – | –
2 | Cc1c(N=C2NCCN2)cc(C#N)c2[nH]cnc12 [Compound I, N-(4,5-Dihydro-1H-imidazol-2-yl)-7-cyano-4-methyl-1H-benzimidazol-5-amine] | – | about 70 fold | no relevant binding | highly selective | 26 to 40
